The results in this text go back to US20220401461A1, “Pharmaceutical Composition for Protecting Cartilage” (Kyoto University, priority 2019, published 2022).

For assay [1], the system named is mouse chondrocytes. The experiment in a line: Tm stress: relative number of viable cells (WST8) in mouse chondrocytes cultured in the presence of tunicamycin. To be noted: chondrocytes differentiated from ATDCS cells; tunicamycin 0.2 μg/mL; KUS121 50 or 100 μM; 40 hours; FIG. 1. Type of assay: cell-based. As to the method:
(§1) Cells of mouse teratocarcinoma-derived cell line ATDCS (J Cell Biol. 1996 April; 133(2):457-68) were cultured in DMEM/Ham's F12 medium containing 5% FBS. The cells were passaged to a 12-well plate at the density of 3×10^4 cells/well and cultured in the presence of insulin (10 μg/ml) (start of differentiation induction, Day 0). The cells were differentiated into chondrocytes by differentiation induction for 14 to 21 days. The cells were used in the following experiments.
On Day 15 of the differentiation induction, tunicamycin (0.2 μg/mL), which induces ER stress, and KUS121 (50 or 100 μM) were added to the medium and the chondrocytes were cultured for 40 hours. Relative number of viable cells was determined by using 2-(2-methoxy-4-nitrophenyl)-3-(4-nitrophenyl)-5-(2,4-disulfophenyl)-2H-tetrazolium monosodium salt (WST8).

For assay [2], the system named is mouse chondrocytes. The experiment in a line: Glucose starvation stress: relative number of viable cells (WST8) in mouse chondrocytes. The conditions noted are these: chondrocytes differentiated from ATDCS cells; medium containing no glucose; 100 μM KUS121; five days; FIG. 2. The assay is classed as cell-based. As to the method:
as §1
The chondrocytes were cultured in the medium containing no glucose and containing KUS 121 (50 or 100 μM) for five days from Day 17 of the differentiation induction. Relative number of viable cells was determined by using WST8.
Background: Tetrazolium dyes change colour on reduction, which living cells bring about.

The subject of assay [3] is mouse chondrocytes. The experiment in a line: TNFα stress: relative number of viable cells (WST8) in mouse chondrocytes. The assay is classed as cell-based. The conditions noted are these: chondrocytes differentiated from ATDCS cells; TNFα 10 ng/mL; KUS121 50 or 100 μM; 48 hours; FIG. 3. As to the method: as §1
On Day 15 of the differentiation induction, TNFα (10 ng/mL), which induces apoptosis, and KUS121 (50 or 100 μM) were added to the medium and the chondrocytes were cultured for 48 hours. Relative number of viable cells was determined by using WST8.

Assay [4] concerns Bip and CHOP in mouse chondrocytes. The experiment in a line: Western blotting for Bip and CHOP in mouse chondrocytes cultured in the presence of tunicamycin. The assay is classed as cell-based. To be noted: tunicamycin 3 μg/mL; KUS121 50 or 100 μM; 6 hours; FIG. 4. As to the method: as §1
On Day 15 of the differentiation induction, tunicamycin (3 μg/mL) and KUS121 (50 or 100 μM) were added to the medium and the chondrocytes were cultured for 6 hours. The cells were subjected to Western blotting. As primary antibodies, Bip (Cell Signaling #3177S), CHOP (Proteintech #15204-1-AP), and actin (Sigma #A5441) were used. Expression of Bip and CHOP was suppressed in the presence of KUS121. Bip is an ER stress marker and CHOP induces apoptosis related to ER stress.
Background: Immunoblotting shows a protein as a band on a membrane.

For assay [5], the system named is cCasp3 in mouse chondrocytes. The experiment in a line: Western blotting for cCasp3 in mouse chondrocytes cultured in the presence of TNFα. To be noted: TNFα 20 ng/mL; KUS121 50 or 100 μM; 48 hours; cCasp3 antibody; FIG. 5. The assay is classed as cell-based. The method, then: as §1
On Day 15 of the differentiation induction, TNFα (20 ng/mL) and KUS121 (50 or 100 μM) were added to the medium and the chondrocytes were cultured for 48 hours. The cells were subjected to Western blotting. As primary antibodies, cCasp3 (Cell Signaling #9661S) and actin (Sigma #A5441) were used. Expression of Casp3, an apoptosis marker, was suppressed in the presence of KUS121.

The test system of the next assay is human chondrocytes. The experiment in a line: Viable cells (CCK-8) in monolayer human chondrocytes cultured in the presence of tunicamycin. The assay is classed as cell-based. The conditions noted are these: tunicamycin 3 μg/mL and KUS121 100 μM for 24 hours, then 0.5% FBS medium for 48 hours; FIG. 6. The method, then: Chondrocytes were collected from a knee joint removed from a patient in knee replacement surgery. The cells were cultured in DMEM-F12 (Gibco, 11330-032) on a 24-well plate to 70-80% confluence and cultured in the medium without FBS for further 24 hours. The cells were then cultured in the medium containing tunicamycin (3 μg/mL) and KUS121 (100 μM) for 24 hours. The medium was replaced with the medium containing 0.5% FBS and the cells were cultured for 48 hours. For counting viable cells, CCK-8 (DOJINDO LABORATORIES) was added, which is a kit for cell counting comprising WST8 as a chromogenic substrate. The cells were incubated for 15 minutes at 37° C. and the absorbances (450 nm, 570 nm) were determined. Viable cells were decreased by adding tunicamycin, but not decreased in the presence of KUS121.

Assay [6] relates to caspase 3/7 activity of human chondrocytes. The experiment in a line: Caspase 3/7 activity (Casp3/7 Glo assay) of human chondrocytes cultured in the presence of tunicamycin. The assay is classed as cell-based. The conditions noted are these: tunicamycin 3 μg/mL; KUS121 100 μM; 6 hours; FIG. 7. The method, then:
Human chondrocytes were cultured to 70-80% confluence. Tunicamycin (3 μg/mL) and KUS121 (100 μM) were added to the medium and the cells were cultured for further 6 hours. Casp3/7 Glo assay (Promega) was used in accordance with the manufacture's instructions and caspase 3/7 activity was determined by luminometer. The caspase activity was increased by adding tunicamycin, but not increased in the presence of KUS121.

For assay [7], the system named is Bip, ATF4, and CHOP in human chondrocytes. The experiment in a line: Western blotting for Bip, ATF4 and CHOP in human chondrocytes cultured in the presence of tunicamycin. The assay is classed as cell-based. The conditions noted are these: tunicamycin 3 μg/mL; KUS121 12.5, 25, 50, or 100 μM; 8 hours; in a dose-dependent manner; FIG. 8. As to the method: Human chondrocytes were cultured to 70-80% confluence. Tunicamycin (3 μg/mL) and KUS121 (12.5, 25, 50, or 100 μM) were added to the medium and the cells were cultured for further 8 hours. Proteins were collected from the cells and subjected to Western blotting. As primary antibodies, Bip (Cell Signaling Technology, #3177), ATF4 (Cell Signaling Technology, #11815), CHOP (Cell Signaling Technology, #2895), and β-actin (Cell Signaling Technology, #5125) were used. In the absence of tunicamycin expressions of ATF4 and CHOP were observed, but the expression levels were quite low. In the presence of tunicamycin KUS121 suppressed expression of Bip, ATF4, and CHOP in a dose-dependent manner.

The test system of assay [8] is p-JNK in human chondrocytes. Briefly: Western blotting for p-JNK and JNK in human chondrocytes cultured in the presence of tunicamycin. The assay is classed as cell-based. The conditions noted are these: tunicamycin 3 μg/mL; KUS121 12.5, 25, 50, or 100 μM; 8 hours; in a dose-dependent manner; FIG. 9. The method, then:
Human chondrocytes were cultured to 70-80% confluence. Tunicamycin (3 μg/mL) and KUS121 (12.5, 25, 50, or 100 μM) were added to the medium and the cells were cultured for further 8 hours. Proteins were collected from the cells and subjected to Western blotting. As primary antibodies, p-JNK (Cell Signaling Technology, #4668), JNK (Cell Signaling Technology, #9252), and β-actin (Cell Signaling Technology, #5125) were used. KUS121 suppressed expression of phosphorylated JNK (p-JNK), a MAP kinase, in a dose-dependent manner.

For assay [9], the system named is MMP13 and MMP1 in human chondrocytes. Briefly: Gene expression of MMP13 and MMP1 by real-time PCR in human chondrocytes cultured in the presence of IL-1β. Type of assay: cell-based. To be noted: IL-1β 2 ng/mL; KUS121 12.5, 25, 50, or 100 μM; 24 hours; in a dose-dependent manner; FIG. 10. The method, then: Human chondrocytes were cultured on a 24-well plate to 70-80% confluence and cultured in the medium without FBS for 24 hours. The cells were then cultured in the medium containing IL-1β (2 ng/mL) and KUS121 (12.5, 25, 50, or 100 μM) for 24 hours. Messenger RNAs were extracted from the cells and cDNAs were generated by reverse transcription. Gene expression levels of MMP13 and MMP1 were determined by real-time PCR. KUS121 suppressed expression of MMP13 and MMP1, which are collagenases, in a dose-dependent manner.

Assay [10] concerns human femorotibial joint cartilage. The experiment in a line: Organ culture of human cartilage: number of viable cells (CCK-8). The assay is classed as cell-based. To be noted: cartilage of posterolateral femoral condyle; KUS121 100 μM; 72 hours; FIG. 11. As to the method: From a knee joint removed from a patient in knee replacement surgery cartilage of femorotibial joint (posterolateral femoral condyle) was collected by using a biopsy punch having a diameter of 7 mm. The cartilage was cultured in the medium without FBS for 48 hours and then in the medium containing KUS121 (100 μM) for 72 hours. Number of viable cells was determined by washing the cartilage with PBS, adding CCK-8, incubating the cartilage for 30 minutes at 37° C., and determining the absorbances (450 nm, 570 nm). Number of viable cells was larger in the presence of KUS121.

Assay [11] concerns Knee osteoarthritis model rats. Briefly: Knee osteoarthritis model (monoiodoacetate, MIA) in rats. Type of assay: in vivo. To be noted: rat, 50 mg/Kg/day intraperitoneally, two weeks after MIA administration. The method, then: It is known that intraarticularly administered monoiodoacetate (MIA) damages chondrocytes and suppresses secretin of collagen and proteoglycan to induce osteoarthritis (M. Udo et al., Osteoarthritis Cartilage. 2016, 24:1284-91). Knee osteoarthritis model rats were generated by administering 0.5 mg of monoiodoacetate (MIA) in 25 μl of saline solution into knee joint cavities of both hind limbs of healthy rats. Prior to the MIA administration, 50 mg/Kg/day of KUS121 was administered intraperitoneally for four days. After the MIA administration, the same amount of KUS121 was administered intraperitoneally five days per week.
Two weeks after the MIA administration the knee cartilages of the rats were resected, fixed with 10% neutral buffered formalin for about one week, demineralized with Morse's solution (for two weeks) or EDTA (for one month), cleaved along the medial collateral ligament, and embedded in paraffin with the cut surface facing up. Sections were cut every 100-200 μm with a thickness of 3-6 μm. The sections were stained with Safranin-O, which stains chondrocytes, and observed with a fluorescence microscope (KEYENCE BZ9000). […] In addition, three blinded evaluators evaluated ORSI scores for medial femur, lateral femur, medial tibia, and lateral tibia on the basis of the results of the Safranin-O staining. […]

Assay [12] relates to traumatic cartilage damage model rats. Briefly: Traumatic cartilage damage model (periodic compression to knee joints) in rats. The conditions noted are these: rat, KUS121 20 mg/ml, 100 μl intraarticularly; for Modified Mankin score of posterolateral femoral condyle: versus control group, FIG. 15. Type of assay: in vivo. The source says: It is known that a mouse that has been given periodic compression to a knee joint can be used as a model of post-traumatic cartilage damage (Wu P, Sandell L, et al. Arthritis Rheumatol. 2014; 66(5):1256-65). In a similar manner, a rat post-traumatic cartilage damage model was generated. Specifically, a knee of a hind limb was deeply flexed and fixed on the table of Autograph (Shimadzu Corporation) with the patella facing down. A vertical load of 5 N was applied downward from the heel, then 240 loads of 20 N at the maximum were applied with 5-second intervals. […] This model was used for the following experiments.
Knee joints of 12-week old male Wister rats (five rats per group) were given periodic compression by the method described above. KUS121 (20 mg/ml) in 5% glucose solution (100 μl) was intraarticularly administered to rats in KUS 121 group immediately before the operation and at Day 1, 2, and 3 after the operation. To rats in the control group 5% glucose solution (100 μl) was administered. The rats were sacrificed two or four weeks after the operation. Damages of posterolateral femoral condyle were histologically evaluated.

Where a name gives a salt, the structure may show the parent alone.

Turning to `Cc1cc(F)ccc1-c1ccc(/N=N/c2cc(S(=O)(=O)O)c3ccccc3c2N)cn1` [KUS121, 4-amino-3-[6-(4-fluoro-2-methylphenyl)pyridine-3-ylazo]naphthalene-1-sulfonic acid sodium salt], in the assay on mouse chondrocytes [1], the “Cell death (relative number of viable cells, WST8)” value is recorded as “significantly suppressed”. Besides, in the assay with mouse chondrocytes [2], the “Cell death (relative number of viable cells, WST8)” value is “significantly suppressed”. Further, the “Cell death (relative number of viable cells, WST8)” value with mouse chondrocytes [3] is on record as “significantly suppressed”. Moreover, in assay [4], the “Expression of Bip (ER stress marker), Western blotting” value was “suppressed” and the “Expression of CHOP, Western blotting” value is on record as “suppressed”. The “Expression of Casp3, an apoptosis marker, Western blotting” value in [5] is recorded as “suppressed”. In addition, the “Viable cells (CCK-8)” value in the assay with human chondrocytes is reported as “not decreased”. The “Caspase 3/7 activity” value in assay [6] is “not increased”. For the same compound, in [7], the “Expression of ATF4, Western blotting” value is recorded as “suppressed”; the “Expression of Bip, Western blotting” value was “suppressed”; the “Expression of CHOP, Western blotting” value is “suppressed”. Further, in [8], the “Expression of phosphorylated JNK (p-JNK), Western blotting” value is reported as “suppressed”. Also, in assay [9], the “Gene expression of MMP1, real-time PCR” value is reported as “suppressed” and the “Gene expression of MMP13, real-time PCR” value is reported as “suppressed”. In addition, the “Number of viable cells (CCK-8)” value in assay [10] is on record as “larger”. Moreover, in [11] (versus control group (PBS), FIG. 12, 13), the “Safranin-O staining of knee cartilage sections (indicates chondrocytes)” value is recorded as “darker”. Besides, the “ORSI score (mean of medial femur, lateral femur, medial tibia, lateral tibia)” value in assay [11] (versus control group, FIG. 14) is recorded as “lower”. Also, the “Volume of cartilage damage in posterolateral femoral condyle” value in [12] (four weeks after the operation, FIG. 16) is listed as “significantly reduced”. The “Number of chondrocytes in posterolateral femoral condyle” value in assay [12] (four weeks after the operation, FIG. 17) is reported as “significantly higher”. The “Modified Mankin score of posterolateral femoral condyle” value in [12] (four weeks after the operation) was “no significant difference”. Further, in [12] (two weeks after the operation), the “Modified Mankin score of posterolateral femoral condyle” value is recorded as “significantly lower”.
